Laboratory results published in publication PMC2842125 (Journal of medicinal chemistry, 2010).

What was measured:
[1] = system: HEK293 cells; assay: EGF-stimulated ERK1/2 activation, phospho-ERK1/2 immunoblot
[2] = molecular target: T1, SHP2 (Homo sapiens, UniProt Q06124); assay: SHP2-catalyzed pNPP hydrolysis inhibition; format: biochemical; conditions: ratio of IC50 values
T1 sequence (Q06124 262-528): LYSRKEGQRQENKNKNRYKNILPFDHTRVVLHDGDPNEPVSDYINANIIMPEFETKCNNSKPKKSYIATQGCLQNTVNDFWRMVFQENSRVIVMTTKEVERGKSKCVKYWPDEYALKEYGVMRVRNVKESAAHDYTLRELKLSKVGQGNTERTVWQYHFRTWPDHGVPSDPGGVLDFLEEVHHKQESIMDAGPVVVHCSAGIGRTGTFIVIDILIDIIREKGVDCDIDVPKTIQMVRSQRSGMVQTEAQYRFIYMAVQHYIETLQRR

fold change of SHP2 IC50 relative to 9 [2]	Compound	EGF-induced ERK1/2 activation, dose dependence ([1]; 0 to 20 μM, EGF stimulation 60 min)	initial transient phase of ERK1/2 activation (phospho-ERK1/2) ([1]; 10 μM, 3 h pre-incubation, 5-15 min post EGF 2 ng/mL)	sustained phase of ERK1/2 activation (phospho-ERK1/2) ([1]; 10 μM, 3 h pre-incubation, 60 min post EGF 2 ng/mL)	pERK1/2 level normalized by total ERK1/2 ([1]; 20 μM, EGF stimulation 60 min)
	Cn1c(-c2ccccc2)c(-c2cn(CCC(=O)Nc3ccc(-c4ccccc4)cc3)nn2)c2cc(C(=O)O)c(O)cc21 [Compound 9, 3-(1-(3-(biphenyl-4-ylamino)-3-oxopropyl)-1H-1,2,3-triazol-4-yl)-6-hydroxy-1-methyl-2-phenyl-1H-indole-5-carboxylic acid]	concentration-dependent inhibition	not the initial transient phase	strongly inhibits	
~2 fold	Cn1c(-c2ccccc2)c(-c2cn(CC(=O)Nc3ccc(-c4ccccc4)cc3)nn2)c2cc(C(=O)O)c(O)cc21 [Compound 9a, 3-(1-(2-(Biphenyl-4-ylamino)-2-oxoethyl)-1H-1,2,3-triazol-4-yl)-6-hydroxy-1-methyl-2-phenyl-1H-indole-5-carboxylic acid]				
~2 fold	Cn1c(-c2ccccc2)c(-c2cn(CCCC(=O)Nc3ccc(-c4ccccc4)cc3)nn2)c2cc(C(=O)O)c(O)cc21 [Compound 9b, 3-(1-(4-(biphenyl-4-ylamino)-4-oxobutyl)-1H-1,2,3-triazol-4-yl)-6-hydroxy-1-methyl-2-phenyl-1H-indole-5-carboxylic acid]				
15.6 fold	Cn1c(-c2ccccc2)c(-c2cn(CCC(=O)Nc3ccccc3)nn2)c2cc(C(=O)O)c(O)cc21 [Compound 14, 6-Hydroxy-1-methyl-3-(1-(3-oxo-3-(phenylamino)propyl)-1H-1,2,3-triazol-4yl)-2-phenyl-1H-indole-5-carboxylic acid]				no appreciable change
